Some test systems named below: NCI-H460 lung; HOP-92 NSCLC; SNB-75 CNS; IGROV1 ovarian; OVCAR-4 ovarian; OVCAR-3 ovarian; K-562 leukemia; HCT-116 colon; SK-MEL-5 melanoma; RXF 393 renal.
Holding throughout (assay): DTP human tumour cell line panel, 48 h

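Exposure lasted 48 hours, with cells grown in 96-well plates and compounds tested at five concentrations. GI50 = concentration required for 50% inhibition of growth. TGI is the concentration that stops growth completely.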

The GI50 is the concentration that inhibits growth by half. As a reminder, the TGI is the concentration at which net growth stops. A higher TGI goes with less potent growth arrest. As for `Nc1ncn([C@@H]2S[C@H](CO)[C@@H](O)[C@@H]2F)c(=O)n1`, the GI50 is 0.442 µM with NCI-H460 lung; 0.623 µM in the test with HOP-92 NSCLC; 43.4 µM in the test with SNB-75 CNS; 3.43 µM in the test with IGROV1 ovarian; over 100 µM with OVCAR-4 ovarian; over 74 µM in the test with OVCAR-3 ovarian. In addition, the GI50 with K-562 leukemia is 1.81 µM; in the test on HCT-116 colon, 0.265 µM; in the test with SK-MEL-5 melanoma it was 0.827 µM; in the test on RXF 393 renal, 7.31 µM. The total growth inhibition concentration (TGI) with NCI-H460 lung, with HOP-92 NSCLC, with SNB-75 CNS, in the test with IGROV1 ovarian, in the test with OVCAR-4 ovarian and in the test on OVCAR-3 ovarian was over 100 µM each time. For the same compound, the TGI in the test on K-562 leukemia, in the test with HCT-116 colon, in the test on SK-MEL-5 melanoma and with RXF 393 renal was over 100 µM each time.
Take `O=C(O)CCNS(=O)(=O)c1ccc(NC(=O)c2ccccc2)cc1`: the TGI in the test on NCI-H460 lung, in the test with HOP-92 NSCLC, with SNB-75 CNS, in the test with IGROV1 ovarian, in the test on OVCAR-4 ovarian and in the test with OVCAR-3 ovarian was over 100 µM each time. Moreover, the TGI in the test on K-562 leukemia, in the test on SK-MEL-5 melanoma and in the test on RXF 393 renal was over 100 µM in each case.
Turning to `CC(=O)c1c(O)c(C)c(O)c(Cc2c(O)c3c(c(C(=O)/C=C/c4ccccc4)c2O)OC(C)(C)C=C3)c1O`, the TGI in the test with NCI-H460 lung stood at 16.4 µM; in the test with HOP-92 NSCLC, 6.08 µM; with SNB-75 CNS it was 7.93 µM; in the test on IGROV1 ovarian it was 16.3 µM; with OVCAR-4 ovarian, 29.4 µM; in the test with OVCAR-3 ovarian it was 15.8 µM. For the same compound, the TGI came to 14.7 µM in the test with K-562 leukemia, 10.2 µM in the test on HCT-116 colon and 5.75 µM in the test on SK-MEL-5 melanoma.
On to `CC1=C([Se]CC(OC(=O)CC[Se]c2ccccc2)C(=O)NC(C)(C)C)C(=O)c2ccccc2C1=O` (stereo not drawn), for which the GI50 in the test with NCI-H460 lung was 0.426 µM; in the test on HOP-92 NSCLC, 1.55 µM; with SNB-75 CNS it was 1.47 µM; in the test on IGROV1 ovarian, 1.53 µM; in the test with OVCAR-4 ovarian it was 1.61 µM; in the test with OVCAR-3 ovarian, 1.61 µM. Also, the GI50 was 0.729 µM in the test on K-562 leukemia, 1.47 µM in the test on HCT-116 colon and 1.82 µM in the test on SK-MEL-5 melanoma. Also, the concentration for total growth inhibition (TGI) in the test on NCI-H460 lung stood at 2.02 µM; in the test on HOP-92 NSCLC, 2.92 µM; in the test with SNB-75 CNS it was 2.82 µM; in the test on IGROV1 ovarian, 2.94 µM; in the test on OVCAR-4 ovarian it was 3 µM; in the test with OVCAR-3 ovarian, 3.11 µM. For the same compound, the TGI in the test with K-562 leukemia worked out at 3.08 µM; in the test on HCT-116 colon, 2.86 µM; in the test on SK-MEL-5 melanoma, 3.27 µM.
With `COc1cccc(-c2nc3cc(NC(=O)c4ccc(Cl)c(C#N)c4)ccc3o2)c1`, the GI50 in the test with NCI-H460 lung is 2.12 µM; with HOP-92 NSCLC it was 3.01 µM; in the test with SNB-75 CNS it was 2.48 µM; with IGROV1 ovarian it was 7.55 µM; with OVCAR-4 ovarian, 1.8 µM; in the test with K-562 leukemia, 2.69 µM. Besides, the GI50 in the test on HCT-116 colon was 1.8 µM; in the test on SK-MEL-5 melanoma, 1.79 µM; in the test with RXF 393 renal, 3.12 µM. The total growth inhibition concentration (TGI) in the test on NCI-H460 lung is 4.91 µM; in the test on HOP-92 NSCLC it was 8.56 µM; with SNB-75 CNS, 7.15 µM; with IGROV1 ovarian, over 100 µM; in the test with OVCAR-4 ovarian, 3.43 µM; in the test on K-562 leukemia, over 100 µM. The figures for the concentration for total growth inhibition (TGI) in the test on HCT-116 colon, with SK-MEL-5 melanoma and in the test on RXF 393 renal were 3.47 µM, 4.2 µM and 9.45 µM, respectively.
Turning to `Clc1ccc(-c2cn3ccnc3c(-c3ccc(Cl)cc3)n2)cc1`, the GI50 with NCI-H460 lung was 19.9 µM; in the test on HOP-92 NSCLC it was 15.1 µM; with SNB-75 CNS, over 100 µM; with IGROV1 ovarian, 21 µM; with OVCAR-3 ovarian it was 16.8 µM; with K-562 leukemia, 2.25 µM. Further, the GI50 is 12.2 µM with HCT-116 colon, 16.6 µM with SK-MEL-5 melanoma and 3.57 µM in the test with RXF 393 renal. Further, the TGI in the test on NCI-H460 lung, with HOP-92 NSCLC, in the test with SNB-75 CNS, in the test on IGROV1 ovarian, in the test on OVCAR-3 ovarian and in the test on K-562 leukemia was over 100 µM each time. Moreover, the results for the TGI in the test on HCT-116 colon, with SK-MEL-5 melanoma and in the test on RXF 393 renal were over 100 µM, 43.5 µM and over 100 µM, respectively.
For the compound `CC[O-].CC[O-].O=C([CH-]C(=O)c1ccccc1)CCCCCCCCC(=O)[CH-]C(=O)c1ccccc1.[Ti+4]`, the GI50 was over 100 µM in the test with NCI-H460 lung; 67.5 µM in the test with HOP-92 NSCLC; over 100 µM in the test on SNB-75 CNS; over 100 µM with IGROV1 ovarian; 78.8 µM in the test on OVCAR-4 ovarian; 0.756 µM in the test with OVCAR-3 ovarian. For the same compound, the GI50 with K-562 leukemia was over 100 µM; with SK-MEL-5 melanoma, over 100 µM; in the test with RXF 393 renal, 45 µM. For the same compound, the TGI with NCI-H460 lung, in the test on HOP-92 NSCLC, in the test with SNB-75 CNS, in the test on IGROV1 ovarian, with OVCAR-4 ovarian and with OVCAR-3 ovarian was over 100 µM each time. The TGI in the test with K-562 leukemia, in the test on SK-MEL-5 melanoma and in the test with RXF 393 renal was over 100 µM each time.
For the compound `C/C=C/C(C#N)O[Si](C)(C)C` (stereo not drawn), the TGI in the test with NCI-H460 lung, with HOP-92 NSCLC, with SNB-75 CNS, with IGROV1 ovarian, in the test on OVCAR-4 ovarian and in the test on OVCAR-3 ovarian was over 100 µM throughout. Also, the TGI in the test on HCT-116 colon, in the test on SK-MEL-5 melanoma and with RXF 393 renal was over 100 µM in each case.
As for `COc1ccc(C2=Nn3c(nnc3-c3cc(Cl)cc(Cl)c3Cl)SC2)cc1`, the GI50 with NCI-H460 lung was 0.502 µM; in the test with HOP-92 NSCLC, over 33.9 µM; with SNB-75 CNS, 0.335 µM; with IGROV1 ovarian, 0.339 µM; with OVCAR-4 ovarian, 0.805 µM; in the test with OVCAR-3 ovarian, 0.173 µM. For the same compound, the GI50 in the test with K-562 leukemia was 0.44 µM; in the test on HCT-116 colon, 0.393 µM; with SK-MEL-5 melanoma, 0.273 µM. In addition, the TGI in the test with NCI-H460 lung is over 100 µM; in the test with HOP-92 NSCLC, over 100 µM; in the test with IGROV1 ovarian it was 3.59 µM; in the test with OVCAR-4 ovarian, over 100 µM; with OVCAR-3 ovarian, 0.772 µM; in the test with K-562 leukemia, over 31.6 µM. In the test on HCT-116 colon, this compound yielded a TGI of over 100 µM.
With `O=C(N/N=C/c1ccccc1O)N/N=C/c1ccccc1O`, the total growth inhibition concentration (TGI) with NCI-H460 lung, with HOP-92 NSCLC, in the test on SNB-75 CNS, with IGROV1 ovarian, with OVCAR-4 ovarian and in the test on OVCAR-3 ovarian was over 100 µM each time. Moreover, the TGI in the test on K-562 leukemia, with HCT-116 colon and in the test on RXF 393 renal was over 100 µM throughout.
On to `CCOC(=O)Oc1c(OC)cc(C(=O)c2ccc(OC)c(O)c2OC)cc1OC`, for which the GI50 is 1.78 µM in the test on NCI-H460 lung; 0.727 µM in the test on HOP-92 NSCLC; 0.534 µM in the test on SNB-75 CNS; 3.86 µM in the test with IGROV1 ovarian; 6.04 µM in the test with OVCAR-4 ovarian; 0.414 µM with OVCAR-3 ovarian. Further, the GI50 with K-562 leukemia was 0.416 µM; with HCT-116 colon it was 0.44 µM; in the test on SK-MEL-5 melanoma, 0.475 µM. For the same compound, the TGI with NCI-H460 lung, in the test on HOP-92 NSCLC, in the test with SNB-75 CNS, in the test with IGROV1 ovarian, in the test on OVCAR-4 ovarian and in the test with OVCAR-3 ovarian was over 100 µM in each case. For the same compound, the figures for the TGI in the test with K-562 leukemia, with HCT-116 colon and with SK-MEL-5 melanoma were over 100 µM, 12.8 µM and 55.6 µM, respectively.
As to `COC(=O)c1sc(C(=O)OC)c2c1CS(=O)C2`, the TGI in the test with HOP-92 NSCLC, with SNB-75 CNS, in the test on IGROV1 ovarian, in the test on OVCAR-4 ovarian, with OVCAR-3 ovarian and in the test with K-562 leukemia was over 100 µM each time. In addition, the TGI in the test on HCT-116 colon, in the test on SK-MEL-5 melanoma and with RXF 393 renal was over 100 µM in each case.
In the case of `N#CC(N)=Nc1ccccc1`, the TGI in the test on NCI-H460 lung, with HOP-92 NSCLC, in the test on SNB-75 CNS, in the test with IGROV1 ovarian, in the test on OVCAR-4 ovarian and in the test on OVCAR-3 ovarian was over 100 µM each time. The TGI in the test with K-562 leukemia, in the test with HCT-116 colon and in the test with SK-MEL-5 melanoma was over 100 µM throughout.
Regarding `Cn1c(=O)nc2n(-c3ccc(O)cc3)c3ccccc3nc-2c1=O`, the TGI in the test on NCI-H460 lung was over 100 µM; in the test with HOP-92 NSCLC, over 100 µM; in the test on SNB-75 CNS, over 100 µM; with IGROV1 ovarian it was over 100 µM; in the test on OVCAR-4 ovarian it was over 100 µM; in the test on OVCAR-3 ovarian it was 64.2 µM. Further, the TGI in the test with K-562 leukemia, in the test with HCT-116 colon and in the test with SK-MEL-5 melanoma was over 100 µM throughout.
With `O=C1CC(CC(=O)C2CCCCC2=O)C(=O)N1` (stereo not drawn), the total growth inhibition concentration (TGI) with NCI-H460 lung, in the test with HOP-92 NSCLC, in the test with SNB-75 CNS, in the test on IGROV1 ovarian, in the test with OVCAR-4 ovarian and in the test with OVCAR-3 ovarian was over 100 µM throughout. In addition, the TGI in the test with K-562 leukemia, in the test on HCT-116 colon and in the test on RXF 393 renal was over 100 µM throughout.

These data come from PubChem BioAssay (NCI).
